# From patent publication US6673549B1, “Genes expressed in C3A liver cell cultures treated with steroids” (Incyte Corporation, priority 2000, dated 2004)
# Several values for one entry are separate records, joined by “and”; a condition that tells them apart may be missing. Equal values may be shown once.
# Tested on: human C3A liver cells
# Test: Microarray differential gene expression in human C3A liver cell cultures treated with steroids
# Format: cell-based
# Source text: Incyte clones represent template sequences derived from the LWESEQ GOLD assembled human sequence database (Incyte Genomics). In cases where more than one clone was available for a particular template, the 5′-most clone in the template was used on the microarray. The HUMAN GENOME GEM series 1-4 microarrays (Incyte Genomics) contain 28,626 array elements which represent 10,068 annotated clusters and 18,558 unannotated clusters. For the UNIGEM series microarrays (Incyte Genomics), Incyte clones were mapped to non-redundant Unigene clusters (Unigene database (build 46), NCBI; Shuler (1997) J Mol Med 75:694-698), and the 5′ clone with the strongest BLAST alignment (at least 90% identity and 100 bp overlap) was chosen, verified, and used in the construction of the microarray. The UNIGEM V microarray (Incyte Genomics) contains 7075 array elements which represent 4610 annotated genes and 2,184 unannotated clusters.
# To construct microarrays, cDNAs were amplified from bacterial cells using primers complementary to vector sequences flanking the cDNA insert. […] Amplified cDNAs were then purified using […]-400 columns (APB). Purified cDNAs were immobilized on polymer-coated glass slides. Glass microscope slides (Corning, Corning N.Y.) were cleaned by ultrasound in 0.1% SDS and acetone, with extensive distilled water washes between and after treatments. Glass slides were etched in 4% hydrofluoric acid (VWR Scientific Products, West Chester Pa.), washed thoroughly in distilled water, and coated with 0.05% aminopropyl silane (Sigma Aldrich) in 95% ethanol. Coated slides were cured in a 110° C. oven. cDNAs were applied to the coated glass substrate using a procedure described in U.S. Pat. No. 5,807,522. One microliter of the cDNA at an average concentration of 100 ng/μl was loaded into the open capillary printing element by a high-speed robotic apparatus which then deposited about 5 nl of cDNA per slide.
# Microarrays were UV-crosslinked using a […] UV-crosslinker (Stratagene), and then washed at room temperature once in 0.2% SDS and three times in distilled water. Non-specific binding sites were blocked by incubation of microarrays in 0.2% casein in phosphate buffered saline (Tropix, Bedford Mich.) for 30 minutes at 60° C. followed by washes in 0.2% SDS and distilled water as before.
# In all cases, mRNA from untreated early confluent C3A cells were prepared in parallel as described below.
# Cells were harvested and lysed in 1 ml of TRIZOL reagent (5×10^6 cells/ml; Life Technologies). Lysates were vortexed thoroughly, incubated at room temperature for 2-3 minutes, and extracted with 0.5 ml chloroform. The extract was mixed, incubated at room temperature for 5 minutes, and centrifuged at 15,000 rpm for 15 minutes at 4° C. The aqueous layer was collected, and an equal volume of isopropanol was added. Samples were mixed, incubated at room temperature for 10 minutes, and centrifuged at 15,000 rpm for 20 minutes at 4° C. The supernatant was removed, and the RNA pellet was washed with 1 ml of 70% ethanol, centrifuged at 15,000 rpm at 4° C., and resuspended in RNAse-free water. The concentration of the RNA was determined by measuring the optical density at 260 nm.
# Poly(A) RNA was prepared using an OLIGOTEX mRNA kit (Qiagen) with the following modifications: OLIGOTEX beads were washed in tubes instead of on spin columns, resuspended in elution buffer, and then loaded onto spin columns to recover mRNA. To obtain maximum yield, the mRNA was eluted twice.
# Each poly(A) RNA sample was reverse transcribed using MMLV reverse-transcriptase, 0.05 pg/μl oligo-d(T) primer (21mer), 1× first strand buffer, 0.03 units/ul RNAse inhibitor, 500 uM dATP, 500 uM dGTP, 500 uM dTTP, 40 uM dCTP, and 40 uM either dCTP-Cy3 or dCTP-Cy5 (APB).
smiles,measurement,setting,value
CC(=O)[C@H]1CC[C@H]2[C@@H]3CCC4=CC(=O)CC[C@]4(C)[C@H]3CC[C@]12C [progesterone],Ave DE [log2] (C3A treated with steroid),Clone ID 167081,−1.12 log2
same,Ave DE [log2] (C3A treated with steroid),Clone ID 1323327,0.83 log2
same,Ave DE [log2] (C3A treated with steroid),Clone ID 1600180,1.06 log2
same,Ave DE [log2] (C3A treated with steroid),Clone ID 1816768,0.28 log2
same,Ave DE [log2] (C3A treated with steroid),Clone ID 2655279,−1.03 log2
same,Ave DE [log2] (C3A treated with steroid),Clone ID 2753065,0.78 log2
same,Ave DE [log2] (C3A treated with steroid),Clone ID 3408804,−1.16 log2
same,Ave DE [log2] (C3A treated with steroid),Clone ID 3528232,0.99 log2
same,Ave DE [log2] (C3A treated with steroid),Clone ID 3876612,0.26 log2
CCCC1O[C@@H]2C[C@H]3[C@@H]4CCC5=CC(=O)C=C[C@]5(C)[C@H]4[C@@H](O)C[C@]3(C)[C@]2(C(=O)CO)O1 (stereo partly drawn) [budesonide],Ave DE [log2] (C3A treated with steroid),Clone ID 380006,−1.05 log2
same,Ave DE [log2] (C3A treated with steroid),Clone ID 517374,1.04 log2
same,Ave DE [log2] (C3A treated with steroid),Clone ID 615776,1.06 log2
same,Ave DE [log2] (C3A treated with steroid),Clone ID 622565,1.20 log2
same,Ave DE [log2] (C3A treated with steroid),Clone ID 654246,−1.08 log2
same,Ave DE [log2] (C3A treated with steroid),Clone ID 686993,0.51 log2
same,Ave DE [log2] (C3A treated with steroid),Clone ID 689296,1.08 log2 and 1.05 log2
same,Ave DE [log2] (C3A treated with steroid),Clone ID 1401312,−1.09 log2
same,Ave DE [log2] (C3A treated with steroid),Clone ID 1604437,1.18 log2
same,Ave DE [log2] (C3A treated with steroid),Clone ID 1611629,1.19 log2
same,Ave DE [log2] (C3A treated with steroid),Clone ID 1662870,−0.93 log2
same,Ave DE [log2] (C3A treated with steroid),Clone ID 1679595,1.10 log2
same,Ave DE [log2] (C3A treated with steroid),Clone ID 1697719,−0.81 log2
same,Ave DE [log2] (C3A treated with steroid),Clone ID 1716458,1.24 log2
same,Ave DE [log2] (C3A treated with steroid),Clone ID 1798594,0.69 log2
same,Ave DE [log2] (C3A treated with steroid),Clone ID 1823946,−1.10 log2
same,Ave DE [log2] (C3A treated with steroid),Clone ID 1876829,−1.13 log2
same,Ave DE [log2] (C3A treated with steroid),Clone ID 1930847,−1.09 log2
same,Ave DE [log2] (C3A treated with steroid),Clone ID 1973123,−1.23 log2
same,Ave DE [log2] (C3A treated with steroid),Clone ID 2057513,1.13 log2
same,Ave DE [log2] (C3A treated with steroid),Clone ID 2078880,−0.80 log2
same,Ave DE [log2] (C3A treated with steroid),Clone ID 2170820,1.17 log2
same,Ave DE [log2] (C3A treated with steroid),Clone ID 2173973,1.08 log2
same,Ave DE [log2] (C3A treated with steroid),Clone ID 2189061,0.15 log2
same,Ave DE [log2] (C3A treated with steroid),Clone ID 2222155,0.58 log2
same,Ave DE [log2] (C3A treated with steroid),Clone ID 2227273,1.05 log2
same,Ave DE [log2] (C3A treated with steroid),Clone ID 2287724,−1.06 log2
same,Ave DE [log2] (C3A treated with steroid),Clone ID 2343836,0.93 log2
same,Ave DE [log2] (C3A treated with steroid),Clone ID 2404746,0.42 log2
same,Ave DE [log2] (C3A treated with steroid),Clone ID 2482388,1.19 log2
same,Ave DE [log2] (C3A treated with steroid),Clone ID 2660756,1.13 log2
same,Ave DE [log2] (C3A treated with steroid),Clone ID 2687356,1.26 log2
same,Ave DE [log2] (C3A treated with steroid),Clone ID 2703282,−1.01 log2
same,Ave DE [log2] (C3A treated with steroid),Clone ID 3139631,−0.97 log2
same,Ave DE [log2] (C3A treated with steroid),Clone ID 3229449,0.39 log2
same,Ave DE [log2] (C3A treated with steroid),Clone ID 3408804,−1.24 log2
same,Ave DE [log2] (C3A treated with steroid),Clone ID 3426776,0.61 log2
same,Ave DE [log2] (C3A treated with steroid),Clone ID 3449615,1.05 log2
same,Ave DE [log2] (C3A treated with steroid),Clone ID 3497137,−0.94 log2
same,Ave DE [log2] (C3A treated with steroid),Clone ID 3687607,1.17 log2
same,Ave DE [log2] (C3A treated with steroid),Clone ID 3721985,−1.10 log2
same,Ave DE [log2] (C3A treated with steroid),Clone ID 3770530,−0.98 log2
same,Ave DE [log2] (C3A treated with steroid),Clone ID 3973687,1.31 log2
same,Ave DE [log2] (C3A treated with steroid),Clone ID 4089291,−1.00 log2
same,Ave DE [log2] (C3A treated with steroid),Clone ID 4215034,1.20 log2
same,Ave DE [log2] (C3A treated with steroid),Clone ID 4252872,1.24 log2
same,Ave DE [log2] (C3A treated with steroid),Clone ID 4403805,1.12 log2
same,Ave DE [log2] (C3A treated with steroid),Clone ID 4630674,0.97 log2
same,Ave DE [log2] (C3A treated with steroid),Clone ID 4855265,1.14 log2
same,Ave DE [log2] (C3A treated with steroid),Clone ID 4863677,1.11 log2
same,Ave DE [log2] (C3A treated with steroid),Clone ID 5038177,0.57 log2
same,Ave DE [log2] (C3A treated with steroid),Clone ID 5102951,0.84 log2
same,Ave DE [log2] (C3A treated with steroid),Clone ID 5326983,0.94 log2
C[C@@H]1C[C@H]2[C@@H]3CCC4=CC(=O)C=C[C@]4(C)[C@@]3(F)[C@@H](O)C[C@]2(C)[C@@]1(O)C(=O)CO [dexamethasone],Ave DE [log2] (C3A treated with steroid),Clone ID 167081,−1.10 log2
same,Ave DE [log2] (C3A treated with steroid),Clone ID 220378,0.39 log2
same,Ave DE [log2] (C3A treated with steroid),Clone ID 380006,−0.98 log2
same,Ave DE [log2] (C3A treated with steroid),Clone ID 419492,1.08 log2
same,Ave DE [log2] (C3A treated with steroid),Clone ID 494905,0.75 log2
same,Ave DE [log2] (C3A treated with steroid),Clone ID 508943,−1.26 log2
same,Ave DE [log2] (C3A treated with steroid),Clone ID 869702,0.55 log2
same,Ave DE [log2] (C3A treated with steroid),Clone ID 1259841,0.84 log2
same,Ave DE [log2] (C3A treated with steroid),Clone ID 1275616,0.97 log2
same,Ave DE [log2] (C3A treated with steroid),Clone ID 1323616,0.89 log2
same,Ave DE [log2] (C3A treated with steroid),Clone ID 1500810,−0.70 log2
same,Ave DE [log2] (C3A treated with steroid),Clone ID 1501410,−1.16 log2
same,Ave DE [log2] (C3A treated with steroid),Clone ID 1573840,0.86 log2
same,Ave DE [log2] (C3A treated with steroid),Clone ID 1823946,−1.20 log2
same,Ave DE [log2] (C3A treated with steroid),Clone ID 1857664,−0.71 log2
same,Ave DE [log2] (C3A treated with steroid),Clone ID 1876829,−0.94 log2
same,Ave DE [log2] (C3A treated with steroid),Clone ID 1930847,−0.67 log2
same,Ave DE [log2] (C3A treated with steroid),Clone ID 1946155,0.93 log2
same,Ave DE [log2] (C3A treated with steroid),Clone ID 2025128,0.90 log2
same,Ave DE [log2] (C3A treated with steroid),Clone ID 2086783,−1.18 log2
same,Ave DE [log2] (C3A treated with steroid),Clone ID 2088104,−1.20 log2
same,Ave DE [log2] (C3A treated with steroid),Clone ID 2095329,−1.37 log2
same,Ave DE [log2] (C3A treated with steroid),Clone ID 2173002,0.75 log2
same,Ave DE [log2] (C3A treated with steroid),Clone ID 2253102,−1.20 log2
same,Ave DE [log2] (C3A treated with steroid),Clone ID 2269058,−1.15 log2
same,Ave DE [log2] (C3A treated with steroid),Clone ID 2285181,−1.27 log2
same,Ave DE [log2] (C3A treated with steroid),Clone ID 2285521,−1.22 log2
same,Ave DE [log2] (C3A treated with steroid),Clone ID 2287703,−1.24 log2
same,Ave DE [log2] (C3A treated with steroid),Clone ID 2287724,−1.16 log2
same,Ave DE [log2] (C3A treated with steroid),Clone ID 2293496,−0.82 log2
same,Ave DE [log2] (C3A treated with steroid),Clone ID 2294968,−0.94 log2
same,Ave DE [log2] (C3A treated with steroid),Clone ID 2655279,−1.21 log2
same,Ave DE [log2] (C3A treated with steroid),Clone ID 2698777,−1.48 log2
same,Ave DE [log2] (C3A treated with steroid),Clone ID 2703282,−0.86 log2
same,Ave DE [log2] (C3A treated with steroid),Clone ID 2947188,−0.98 log2
same,Ave DE [log2] (C3A treated with steroid),Clone ID 3057272,0.98 log2
same,Ave DE [log2] (C3A treated with steroid),Clone ID 3115505,−1.10 log2
same,Ave DE [log2] (C3A treated with steroid),Clone ID 3139631,−0.82 log2
same,Ave DE [log2] (C3A treated with steroid),Clone ID 3973887,−1.06 log2
same,Ave DE [log2] (C3A treated with steroid),Clone ID 4089291,−0.77 log2
same,Ave DE [log2] (C3A treated with steroid),Clone ID 4284270,−0.88 log2
same,Ave DE [log2] (C3A treated with steroid),Clone ID 4377432,0.87 log2
same,Ave DE [log2] (C3A treated with steroid),Clone ID 4884214,−0.77 log2
same,Ave DE [log2] (C3A treated with steroid),Clone ID 5091002,−1.42 log2
same,Ave DE [log2] (C3A treated with steroid),Clone ID 5206821,0.17 log2
same,Ave DE [log2] (C3A treated with steroid),Clone ID 5426158,−1.03 log2
